ChEMBL document CHEMBL6177951, “Synthesis and anti-MRSA activity of quaternized small molecule antimicrobial peptide mimics based on norharmane” (Eur J Med Chem, 2025)
Activity calls are given as the source filed them. The rule behind the calls is not given here.

Legend:
[1] = system: Cell membrane; assay: Induction of cell membrane permeability in methicillin-resistant Staphylococcus aureus assessed as increase in nucleic acid leakage at 2 ug/ml incubated for 8 hrs; format: subcellular; settings: dose 2.0 µg/ml
[2] = system: Calf thymus DNA; assay: Binding affinity to calf thymus DNA assessed as change in enthalpy at 3 uM by ITC assay; format: nucleic-acid assay; settings: Bos taurus
[3] = Hemolytic activity in sheep RBC assessed as hemolysis at 256 times MIC incubated for 1 hrs relative to control; format: toxicity, cell-based, Ovis aries, Erythrocyte; settings: sheep red blood cells, read-out: Activity
[4] = system: Staphylococcus aureus; assay: Antibacterial activity against methicillin-resistant Staphylococcus aureus ATCC 43300 assessed as inhibition of bacterial growth incubated for 14 hrs by two-fold serial dilution method; format: functional
[5] = system: Calf thymus DNA; assay: Binding affinity to calf thymus DNA assessed as change in entropy at 3 uM by ITC assay; format: nucleic-acid assay; settings: Bos taurus
[6] = system: Staphylococcus aureus; assay: Antibacterial activity against methicillin-resistant Staphylococcus aureus clinical isolate M-17 incubated for 14 hrs by two-fold serial dilution method; format: functional
[7] = system: Staphylococcus aureus; assay: Antibacterial activity against methicillin-resistant Staphylococcus aureus clinical isolate M-15 incubated for 14 hrs by two-fold serial dilution method; format: functional
[8] = system: Staphylococcus aureus; assay: Antibacterial activity against Staphylococcus aureus ATCC 33591 assessed as log reduction in bacterial growth at 1 times MIC measured at 6 hrs by time-kill kinetic assay; format: functional
[9] = system: Staphylococcus aureus; assay: Antibacterial activity against methicillin-resistant Staphylococcus aureus assessed as reduction in metabolic activity at 2 ug/ml incubated for 8 hrs by alamar blue staining based analysis relative to control; format: functional; design: scale not given: the % may be the effect or the level left; settings: dose 2 µg/ml
[10] = system: Staphylococcus aureus; assay: Antibacterial activity against Staphylococcus aureus ATCC 33591 assessed as inhibition of bacterial growth at 0.5 times MIC measured at 0 to 12 hrs by growth kinetic assay; format: functional, organism-based; settings: time 0-12 hrs
[11] = system: Staphylococcus aureus; assay: Antibacterial activity against methicillin-resistant Staphylococcus aureus clinical isolate M-13 incubated for 14 hrs by two-fold serial dilution method; format: functional
[12] = system: Staphylococcus aureus; assay: Antibacterial activity against methicillin-resistant Staphylococcus aureus assessed as change in cell surface zeta potential at 256 ug/ml incubated for 8 hrs; format: functional, organism-based; settings: dose 256.0 µg/ml
[13] = Toxicity in female Kunming mouse assessed as inflammatory response in kidney at 500 to 2000 mg/kg, sc measured after 7 days by H and E staining based analysis; format: organism-based; settings: in vivo, 168 h, dose 500-2000 mg/kg, time 7 day
[14] = system: Staphylococcus aureus; assay: Antibacterial activity against methicillin-resistant Staphylococcus aureus clinical isolate M-21 incubated for 14 hrs by two-fold serial dilution method; format: functional
[15] = system: Staphylococcus aureus; assay: Antibacterial activity against methicillin-resistant Staphylococcus aureus clinical isolate M-19 incubated for 14 hrs by two-fold serial dilution method; format: functional
[16] = system: Staphylococcus aureus; assay: In vivo antibacterial activity against methicillin-resistant Staphylococcus aureus infected in female Kunming mouse skin infection model assessed as log reduction in bacterial load at 5 mg/kg measured after 48 hrs (reference value: 14.34 log10CFU/g); format: functional
[17] = Toxicity in female Kunming mouse assessed as inflammatory cell infiltration at 5 to 20 mg/kg, sc measured after 48 hrs by H and E staining based analysis; format: organism-based; settings: in vivo, dose 5-20 mg/kg
[18] = Toxicity in female Kunming mouse assessed as abnormality inside skin at 5 to 20 mg/kg, sc measured after 48 hrs; format: organism-based; settings: in vivo, dose 5-20 mg/kg
[19] = system: Staphylococcus aureus; assay: Induction of morphological changes in methicillin-resistant Staphylococcus aureus assessed as appearance of holes in cells at 0.5 ug/ml incubated for 6 hrs by SEM analysis; format: functional, organism-based; settings: dose 0.5 µg/ml
[20] = system: Calf thymus DNA; assay: Binding affinity to calf thymus DNA assessed as binding constant by ITC assay; format: nucleic-acid assay; settings: Bos taurus
[21] = system: Staphylococcus aureus; assay: Antibiofilm activity against methicillin-resistant Staphylococcus aureus assessed as inhibition of biofilm formation at 4 ug/ml incubated for 24 hrs by crystal violet staining based analysis relative to control; format: functional; design: scale not given: the % may be the effect or the level left; settings: dose 4 µg/ml
[22] = system: Staphylococcus aureus; assay: Antibacterial activity against methicillin-resistant Staphylococcus aureus incubated for 6 hrs in presence of 10 to 60% sheep plasma; format: functional, organism-based
[23] = Acute toxicity in female Kunming mouse assessed as mortality at 500 to 2000 mg/kg, sc measured after 7 days; format: organism-based; settings: in vivo, 168 h, dose 500-2000 mg/kg, time 7 day
[24] = system: Lipoteichoic acid; assay: Displacement of BODIPY-TR-cadaverine from Staphylococcus aureus LTA assessed as increase in fluorescence intensity at 2 ug/ml incubated for 0.5 hrs by fluorescence based analysis relative to control; settings: dose 2.0 µg/ml
[25] = system: Staphylococcus aureus; assay: Antibiofilm activity against methicillin-resistant Staphylococcus aureus assessed as disruption of preformed biofilm at 0.25 to 16 ug/ml incubated for 24 hrs by crystal violet staining based analysis; format: functional, organism-based; settings: dose 0.25-16 µg/ml
[26] = system: L02; assay: Cytotoxicity against human L02 cells assessed as reduction in cell viability at 4 ug/ml incubated for 24 hrs by CCK-8 assay relative to control; format: toxicity, cell-based; settings: l02, 24 h, at 4 µg/mL
[27] = system: Staphylococcus aureus; assay: Induction of morphological changes in methicillin-resistant Staphylococcus aureus assessed as appearance of rough cell surface at 0.5 ug/ml incubated for 6 hrs by SEM analysis; format: functional, organism-based; settings: dose 0.5 µg/ml
[28] = system: Staphylococcus aureus; assay: Antibacterial activity against methicillin-resistant Staphylococcus aureus clinical isolate M-23 incubated for 14 hrs by two-fold serial dilution method; format: functional
[29] = system: Staphylococcus aureus; assay: Induction of oxidative damage in methicillin-resistant Staphylococcus aureus assessed as loss of GSH activity incubated for 8 hrs; format: functional, organism-based; settings: dose 0.25-2 µg/ml
[30] = system: Staphylococcus aureus; assay: Antibacterial activity against methicillin-resistant Staphylococcus aureus clinical isolate M-14 incubated for 14 hrs by two-fold serial dilution method; format: functional
[31] = system: Cell membrane; assay: Induction of cell membrane integrity in methicillin-resistant Staphylococcus aureus assessed as appearance of blue and red fluorescence at 0.25 ug/ml incubated for 8 hrs by DAPI/PI staining based fluorescence microscopic analysis; format: subcellular; settings: dose 0.25 µg/ml

C[n+]1ccc2c3ccccc3n(CCCCCCCCCCCn3c4ccccc4c4cc[n+](C)cc43)c2c1.[I-].[I-]
Activity [1]: Active | deltaH [2]: -0.223 kcal/mol | hemolysis at 1 h, 256 times MIC [3]: < 10% | MIC [4]: 1 µg/mL | deltaS [5]: 99.2 J/mol.K | MIC [6]: 0.5 µg/mL | MIC [7]: 0.5 µg/mL | Activity [8]: 3.95 log10CFU/ml | Activity [9]: 64.56% | Activity [10]: Active | MIC [11]: 1 µg/mL | Activity [12]: Active | Activity [13]: Non-toxic | MIC [14]: 1 µg/mL | MIC [15]: 0.5 µg/mL | Activity [16]: 4.85 log10CFU/g | Activity [17]: Non-toxic | Activity [18]: Non-toxic | Activity [19]: Active | K [20]: 2.21 10^5/M | Activity [21]: 98% | Activity [22]: Active | Activity [23]: Non-toxic | Activity [24]: 31.7% | Activity [25]: inactive | Activity [26]: 71.86% | Activity [27]: Active | MIC [28]: 0.5 µg/mL | Activity [29]: Dose-dependent-effect | MIC [30]: 0.25 µg/mL | Activity [31]: Active
